Like-named read-outs stand apart in the source and are kept apart here.
What was measured:
[1] = Tolerability in A549 tumor-bearing Rag2 mice (body weight, CBC, clinical observations)
Description: Tumor growth was monitored by measuring tumor dimensions with calipers beginning on the first day of treatment. Tumor length and width measurements were obtained each Monday, Wednesday, and Friday. Tumor volumes were calculated according to the equation L×W^2/2 with the length (in mm) being defined as the longer axis of the tumor. Animals were weighed at the time of tumor measurement. Tumors were allowed to grow to a maximum of 800 mm^3 before termination.
All animals had blood collected by cardiac puncture at termination for CBC (complete blood count) with differentiation.
In particular, signs of ill-health were based on body weight loss, change in appetite, and behavioral signs such as altered gait, lethargy, and gross manifestations of stress. If signs of severe toxicity or tumor-related illness were seen, the animals were terminated by isoflurane overdose followed by CO2 asphyxiation, and a necropsy was performed to assess other signs of toxicity. The following organs were examined: liver, gall bladder, spleen, lung, kidney, heart, intestine, lymph nodes, and bladder. Any unusual findings were noted.

GBM = details: cited from earlier work
[2] = tested on: CSC and non-CSC cultures derived from primary GBM tissue; test: Cell cycle analysis (propidium iodide staining, FACS) in primary GBM cultures; assay type: cell-based, human
Description: “GAPDH” refers to glyceraldehyde-3-phosphate dehydrogenase as a control. For the cell cultures, CSCs were cultured in NSA media supplemented with B27, EGF and bFGF. Non-CSCs were grown in DMEM:F12 with 10% FBS. MGMT methylation and protein expression analysis of each culture was characterized. TMZ or VAL-083 was added to the cultures in the indicated concentrations. Depending on the experiment, cells were also irradiated with 2 Gy in a Cesium irradiator. For assays, cell cycle analysis was performed with Propidium Iodide staining and FACs analysis. Cell viability was analyzed with CellTiter-Glo™ and read on a Promega GloMax™. […] In FIG. 4, “1° GBM” refers to primary glioblastoma multiforme cell cultures.
In FIG. 16, cells were treated with either increasing doses of TMZ (5, 50 100 and 200 μM) or dianhydrogalactitol (“VAL-083”) (1, 5, 25 and 100 μM) and cell cycle analysis was performed 4 days post treatment.
Additional experiments were performed to test the effect of the duration of drug administration. […] Dianhydrogalactitol was left on for the duration of the treatment.

[3] = in vivo; cited from earlier work
[4] = Phase I/II dose-escalation study, safety (DLT, SAE, MTD); assay type: in vivo, human; details: for drug-related serious adverse events: dose cohorts completed to date
Text: The methodology of the study reported in this Example is as follows: An open-label, single arm Phase I/II dose-escalation study designed to evaluate the safety, tolerability, pharmacokinetics and anti-tumor activity of dianhydrogalactitol in patients with: (i) histologically confirmed initial diagnosis of primary WHO Grade IV malignant GBM, now recurrent, or (ii) progressive secondary brain tumor, having failed standard brain radiotherapy, and with brain tumor progression after at least one line of systemic therapy. The study utilizes a 3+3 dose escalation design, until the MTD or the maximum specified dose is reached. […] In Phase II, additional patients will be treated at the MTD (or other selected optimum Phase II dose) to measure tumor responses. All patients enrolled have previously been treated with surgery and/or radiation, if appropriate, and must have failed both bevacizumab and TMZ, unless contraindicated. For these studies, the following is a summary of the inclusion criteria: (1) Patients must be greater than or equal to 18 years old. (2) There is a histologically confirmed initial diagnosis of primary WHO Grade IV malignant glioma (glioblastoma), now recurrent, or progressive secondary brain tumor, the patient has failed standard brain radiotherapy, and the patient has brain tumor progression after at least one line of systemic therapy. […] (4) The patient must have a predicted life expectancy of at least 12 weeks. The following is a summary of the exclusion criteria: (1) There is a current history of neoplasm other than the entry diagnosis. Patients with previous cancers treated and cured with local therapy alone may be considered. (2) There is evidence of leptomeningeal spread of disease. […] (4) The patient had undergone prior treatment with intracerebral agents. […] (6) The patient is being administered concomitant medications that are strong inhibitors of cytochrome P450 and CYP3A up to 14 days before Cycle 1, Day 1 (pimozide, diltiazem, erythromycin, clarithromycin, and quinidine, and amiodarone up to 90 days before.
Enrollment and evaluation of Cohort 7 (40 mg/m^2) is ongoing. Higher doses may be enrolled subject to completion of mandated safety observation period with Cohort 6 (30 mg/m^2). Patients enrolled present with refractory progressive GBM and a dire prognosis. […] The primary endpoint of this portion of the study is to determine a modernized dosing regimen for advancement to registration-directed clinical trials. […] In this design, it is not possible to perform a rigorous assessment of patient benefit due to slowed tumor growth. Tumor volume is assessed during the study based on RANO criteria. […] Outcomes analysis of cohort 6 is ongoing. These preliminary data support continued exploration of higher dose cohorts.

[5] = cited from earlier work
[6] = secondary brain tumor patients, n = 6

## dianhydrogalactitol
[1]; dianhydrogalactitol 6 mg/kg (group 5)
  body weight loss: body weight loss was observed
[1]; dianhydrogalactitol 6 mg/kg, only 3 of 9 scheduled doses administered
  tolerability of the dosage: significant weight loss and morbidity
[1]; groups 4 or 5 (dianhydrogalactitol 3 or 6 mg/kg)
  hemoglobin (g/L), CBC at termination, versus untreated control: Statistical significance (p<0.05)
GBM; GBM, Eagan (1979), Stupp (2005)
  Median O.S. (XRT + Chemo): 67 weeks
GBM; cumulative IV dose of 125 mg/m^2 in a 35 day cycle, brain cancer, Eagan 1979
  efficacy in combination with radiation versus radiation alone: superior to radiation alone
[2]; CSC and non-CSC cultures, FACS profiles (FIGS. 7-9)
  cell death, concentration compared with temozolomide: cause cell death at lower concentrations than temozolomide
[2]; VAL-083 1, 5, 25 and 100 μM, cell cycle analysis 4 days post treatment, paired CSC and non-CSC
  cell cycle arrest in TMZ-resistant cultures: exhibited sensitivity to VAL-083, even at single-micromolar doses
[2]; all cultures tested, independent of MGMT status and stem versus non-stem
  cell cycle arrest and loss of cell viability, summary: cell cycle arrest and loss of cell viability in nearly all cultures tested
[2]; washed out after 3 hours versus left on, 7996 GNS, 8279 GNS, 7996 ML, 8565 ML
  effect of duration of drug exposure on cell cycle: less effect when washed out after 3 hours
[3]
  blood-brain barrier passage: readily crosses the blood-brain barrier and accumulates in brain tissue
[4]; 1.5 mg/m^2, cumulative 9 mg/m^2 in 33-day cycle
  Status (DLT): Completed - No DLT
[4]; 3.0 mg/m^2, cumulative 18 mg/m^2 in 33-day cycle
  Status (DLT): Completed - No DLT
[4]; 5.0 mg/m^2, cumulative 30 mg/m^2 in 33-day cycle
  Status (DLT): Completed - No DLT
[4]; 10.0 mg/m^2, cumulative 60 mg/m^2 in 33-day cycle
  Status (DLT): Completed - NO DLT
[4]; 20.0 mg/m^2 (revised scheme), cumulative 120 mg/m^2 in 33-day cycle
  Status (DLT): Completed - NO DLT
[4]; 30.0 mg/m^2 (revised scheme), cumulative 180 mg/m^2 in 33-day cycle, analysis ongoing
  Status (DLT): Completed - No DLT
[4]; GBM patients, n = 8
  DLT: None
[4]
  drug-related serious adverse events: No drug-related serious adverse events have been detected
[4]; listed as Dianhydrogalactitol
  drug-related serious adverse events: no drug-related serious adverse events have been detected
[4]; five dose cohorts completed, not yet reached
  maximum tolerated dose (MTD), as 33 day cycle cumulative dose: > 120 mg/m^2
[4]; i.v. on days 1, 2, and 3 of each 21-day cycle, not reached
  maximum tolerated dose (MTD): > 30 mg/m^2
[4]; [6]
  DLT: None
  SAE: None (n = 5)
[5]; GBM chemotherapy, historical data
  Recovery: Within 7-8 days
[5]; human, in vivo
  DLT: Hematologic
  Nadir: 18 to 21 days
  Other Severe Toxicities Reported (>2%): None

Source: patent US20190015379A1, “USE OF DIANHYDROGALACTITOL AND ANALOGS AND DERIVATIVES THEREOF, TOGETHER WITH RADIATION, TO TREAT NON-SMALL-CELL CARCINOMA OF THE LUNG AND GLIOBLASTOMA MULTIFORME AND SUPPRESS PROLIFERATION OF CANCER STEM CELLS” (DelMar Pharmaceuticals, Inc., priority 2014, published 2019)
